PMC10518255, “A first-in-class pan-lysyl oxidase inhibitor impairs stromal remodeling and enhances gemcitabine response and survival in pancreatic cancer” (Nature Cancer, 2023)
Values joined by “and” are separate entries in the source; they are usually repeats but may differ in a detail not shown here. Identical values can stand only once.

Tested on: CD8
Assay: Immunohistochemistry of end-point KPC tumors: T-cell infiltration
Format: in vivo, mouse
Conditions: KPC tumours at endpoint; individual replicate values (Extended Data 6I)
Method: All tissues or matrices, including patient TMAs, were fixed in 10% buffered formalin and embedded in paraffin. The 4-μm sections of samples were deparaffinized with xylene and rehydrated in graded ethanol washes. For immunohistochemistry, Bond Dewax Solution (AR9222) was used. Antigen retrieval was performed using Bond RX H2(30) protocol: HIER 30 min ER1 (citrate pH 6) OR ER2 (EDTA pH 9) at 100 °C. Slides were quenched in BOND Polymer Refine Detection (Leica Biosystems DS9800). […] Slides were digitized on an Aperio slide scanner and representative areas per tumor acquired and analyzed by researchers blinded to the conditions of the experiment.
Extended Data Fig. 6 PXS-5505 in combination with gemcitabine in a KPC model. a. Quantification of proliferating cells (Ki67 positive nuclear staining) in KPC tumors at end point, treated as indicated. 5 fields of view (500 μm × 500 μm) per mouse and 10 mice per cohort were scored. […] Quantification of percent coverage of αSMA positive staining in KPC tumors at end point, treated as indicated. 3 fields of view (1000 μm × 1000 μm) per mouse and 10 mice per cohort were scored. […] Quantification of percent coverage of PDGFR-ß positive staining in KPC tumors at end point, treated as indicated. 3 fields of view (1000 μm × 1000 μm) per mouse and 10 mice per cohort were scored. […] 3 fields of view (500 μm × 500 μm) per mouse and 10 mice per cohort were scored. […]

Compound: Cl.Cl.NC/C=C(\F)CS(=O)(=O)c1cccc2cccnc12.O [PXS-5505, (Z)-3-fluoro-4-(quinolin-8-ylsulfonyl)but-2-en-1-amine dihydrochloride monohydrate]
- T-cell infiltration (CD8 positive staining): 7 and 5
